Results published in US20070258972A1, “Combination of a Histone Deacetylase Inhibitor with a Death Receptor Ligand” (priority 2003, published 2007).

How the values were obtained:
Jurkat and SKW 6.4 cells [1] = assay: Western analyses of proteins, Jurkat and SKW 6.4 cells; assay type: cell-based, human
Protocol: (§1) Western analyses of DR4, DR5, Apo-2L, FADD, Caspase-8, c-FLIPL & S, BID, Caspase-9, Caspase-3, PARP, XIAP, clAP1, survivin and β-actin are performed using specific anti-sera or monoclonal antibodies according to previously reported protocols. Horizontal scanning densitometry was performed on Western blots by using acquisition into Adobe Photo Shop (Apple, Inc., Cupertino, Calif.) and analysis by the NIH Image Program (U.S. National Institutes of Health, Bethesda, Md.). The expression of β-actin was used as a control.

[2] = system: Apo-2L/TRAIL-induced DISC; assay: Apo-2L/TRAIL-induced DISC analysis; assay type: cell-based, human; conditions: LAQ824 100 nM for 24 hours followed by Apo-2L/TRAIL (100 ng/mL for two hours) versus Apo-2L/TRAIL; not c-FLIPL
Protocol: Untreated or LAQ824 treated SKW 6.4 or Jurkat cells are suspended at a final concentration of 10^6 cells/mL in a pre-warmed, complete RPMI media. Cells are treated with 100 ng/mL Apo-2L/TRAIL for 2 hours at 37° C, followed by washing with 1 mL of ice-cold PBS. Cells are lysed in 500 μL lysis buffer (25 mM Tris-HCl, pH 7.2, 150 mM NaCl, 25 mM NaF, 1 mM benzamidine, 1.0% Triton X-100, 2 μg/mL aprotinin 2 μg/mL leupeptin, 1 μg/mL pepstin-A and 0.1 μg/mL PMSF) for 30 minutes on ice. In the untreated controls, 100 ng/mL Apo-2L/TRAIL was added after lysis of cells, to immunoprecipitate non-stimulated Apo-2L/TRAIL receptors. One-hundred micrograms (100 μg) of the lysates was incubated at 4° C. for 2 hours with 1 μg each of anti-Apo-2L/TRAIL receptor 1 & 2 (DR4 and DR5) antibodies, provided by Immunex Corp., Seattle Wash. The immune-complexes are incubated overnight at 4° C. with 20 μL of protein A-agarose beads (Roche, Indianapolis, Ind.). The beads are recovered by centrifugation and washed twice with the lysis buffer. The pellet was re-suspended in the sample buffer and analyzed by SDS-PAGE and immunoblot analysis using antibodies against caspase-8, DR5, DR4 and FADD.

DR5 = DR5 expression on the cell membrane by flow cytometry, primary AML sample; assay type: cell-based, human
Jurkat and SKW 6.4 cells [3] = assay: Apoptosis assessment by annexin-V staining, Jurkat and SKW 6.4 cells; assay type: cell-based, human; conditions: 10-200 nM, 24 hours; more in Jurkat than in SKW 6.4 cells
Protocol: (§2) After drug treatments, cells are resuspended in 100 μL of the staining solution containing annexin-V fluorescein and propidium iodide in a HEPES buffer (Annexin-V-FLUOS Staining Kit, Boehringer-Mannheim, and Indianapolis, Ind.). Following incubation at room temperature for 15 minutes, annexin V positive cells are estimated by flow cytometry, as previously described.

SKW 6.4 and Jurkat cells = assay: Flow cytometry analysis of cell cycle status; assay type: cell-based, human; conditions: 24 hours
Protocol: The flow cytometric evaluation of the cell cycle status is performed according to a previously described method. The percentage of cells in the G1, S-phase, and G2/M phases are calculated using Multicycle software (Phoenix Flow Systems, San Diego, Calif.).

HDAC = conditions: 5-250 nM; HeLa cell nuclear extracts; previously reported; cited from earlier work
Primary AML cells = assay: Apoptosis of primary AML cells by annexin V staining and flow cytometry; assay type: cell-based, human; conditions: for % of Apoptosis: LAQ824 100 nM and/or Apo-2L/TRAIL 100 ng/mL, 24 hours
From the text: Jurkat T cell leukemia and SKW6.4 B lymphoblast cells are obtained from American Tissue Culture Collection (Manassas, Va.). HL-60/Bcl-2 cells with ectopic over-expression of Bcl-2 and the control HL-60/Neo cells are created and maintained in culture as previously described. Primary leukemia blasts from six patients with AML in relapse are harvested, as previously described, from the peripheral blood or bone marrow after informed consent, as a part of a protocol study sanctioned by the local Institutional Review Board. The purity of leukemia blasts in the samples prior to culture in LAQ824 and/or Apo-2L/TRAIL was at least 80% or more, as determined by morphologic evaluation after Wright staining.
as §2

primary AML blasts = assay: Western analyses of proteins, primary AML blasts; assay type: cell-based, human
Protocol: as §1

With `O=C(/C=C/c1ccc(CN(CCO)CCc2c[nH]c3ccccc23)cc1)NO` [LAQ824, N-hydroxy-3-[4-[[(2-hydroxyethyl)[2-(1H-indol-3-yl)ethyl]-amino]methyl]phenyl]-2E-2-propenamide] the “acetylation of histone H3 and histone H4” value (Jurkat and SKW 6.4 cells [1]; 50 nM or 200 nM, 24 hours, Jurkat and SKW 6.4 cells) was “increased”, the “intracellular levels of p27” value (Jurkat and SKW 6.4 cells [1]; 50 nM, SKW 6.4 and Jurkat cells) was “increase” and the p27 levels (Jurkat and SKW 6.4 cells [1]; 200 nM, both cell-types) was “attenuated”. The “Apo-2L/TRAIL, DR4 and DR5 levels” value (Jurkat and SKW 6.4 cells [1]; 24 hours, SKW 6.4 and Jurkat cells) was “induces”, the “levels of Bcl-xL, Bcl-2, XIAP, c-IAP and survivin” value (Jurkat and SKW 6.4 cells [1]; SKW 6.4 and Jurkat cells) was “attenuates” and the “levels of FLIPL and FLIPS” value (Jurkat and SKW 6.4 cells [1]; SKW 6.4 and Jurkat cells) was “attenuates”. For the same compound, the “levels of p21” value (Jurkat and SKW 6.4 cells [1]; SKW 6.4 cells) was “dose-dependent increase”, the “recruitment of FADD and caspase-8 into the immunoprecipitates of DR4 & DR5” value [2] was “more recruitment” and the “DR5 expression on the cell membrane” value (DR5; 100 nM LAQ824, baseline 17.5%) was 33.2 % of cells. The “DR5 expression on the cell membrane” value (DR5; 250 nM LAQ824, baseline 17.5%) was 62.4 % of cells, the “apoptosis, positive staining for annexin V” value (Jurkat and SKW 6.4 cells [3]) was “induces apoptosis in a dose-dependent manner” and the “cells in the S phase of the cell cycle” value (SKW 6.4 and Jurkat cells) was “decline”. For the same compound, the “percentage of cells in the G1 phase” value (SKW 6.4 and Jurkat cells) was “markedly increases”, the “in vitro HDAC activity” value (HDAC) was “inhibits the in vitro HDAC activity in a dose-dependent manner” and the “% of Apoptosis” value (Primary AML cells; Patient 1 primary AML cells, control 7.0) was 14.5%. The “% of Apoptosis” value (Primary AML cells; Patient 2 primary AML cells, control 12.0) was 29.5%, the “% of Apoptosis” value (Primary AML cells; Patient 3 primary AML cells, control 8.0) was 22.9% and the “% of Apoptosis” value (Primary AML cells; Patient 4 primary AML cells, control 10.0) was 27.9%. The “% of Apoptosis” value (Primary AML cells; Patient 5 primary AML cells, control 6.0) was 57.8%, the “% of Apoptosis” value (Primary AML cells; Patient 6 primary AML cells, control 7.0) was 7.9% and the “apoptosis of primary AML blasts (in words)” value (Primary AML cells; six samples, relapsed AML, Apo-2L/TRAIL 100 ng/mL, LAQ824 100 nM) was “induces more apoptosis”. For the same compound, the “DR4 and DR5 levels” value (primary AML blasts) was “increases”, the “levels of FLIPL and c-FLIPS” value (primary AML blasts) was “down-regulates” and the “acetylation of histones H3 and H4” value (primary AML blasts; 100 nM or 250 nM, 24 hours) was “induces”.
